Measured values as given in article PMC3543460, “Structure-Activity Relationships of the Antimicrobial Peptide Arasin 1 — And Mode of Action Studies of the N-Terminal, Proline-Rich Region” (PLoS ONE, 2013).
≈ marks a conversion by molar mass, not a printed value. Peptide text beside a SMILES is read from it.

Key:
Gram-negative bacteria = settings: cited from earlier work
Procedure: The high standard deviation values only observed at 20 µM (5×MIC) for both the viability assay (Fig. 3) and the membrane integrity assay (Fig. 6) indicate that activity around this concentration was very sensitive to individual assay conditions.

E. coli HB101 [1] = experiment: Membrane integrity assay II (propidium iodide, flow cytometry); format: cell-based, Escherichia coli; settings: at MIC; PI flow cytometry
Procedure: The effect of arasin 1(1–23) and cecropin P1 on membrane permeabilization was also studied by measuring the percentage of propidium iodide (PI) positive cells by flow cytometry. Samples of 1×10^6 cells/ml of E. coli HB101 were incubated in 50% MH with peptides at 37°C for different time span. After incubation, PI (Sigma Aldrich, Saint Louis, MO, USA) was added to the peptide-treated bacteria at a final concentration of 10 µg/ml. The cells were analyzed after 4 min of incubation with PI at 37°C in the flow cytometer as described.

E. coli HB101 [2] = experiment: Bactericidal assay (killing kinetics, colony counts); format: cell-based, Escherichia coli; settings: 50% MHB, 1×10^6 CFU/ml, 37°C
Procedure: During incubation, aliquots were removed at different time intervals, washed in buffered high salt solution (10 mM Na-phosphate, 400 mM NaCl, 10 mM MgCl2), diluted and plated on MH plates. The number of bacterial CFU was determined after approximately 48 h of incubation at 37°C.

B. cinerea 101 = format: cell-based, Botrytis cinerea; settings: lowest concentration tested giving less than 50% visible growth vs growth control; potato dextrose medium, 20°C, 48 h; three individual experiments
[3] = tested on: E. coli HB101 constitutively expressing the luxCDABE operon; experiment: Cell viability assay (luxCDABE luminescence); format: cell-based, Escherichia coli; settings: at MIC, within the first 10 min after addition of peptide; 50% MH, OD600 0.2, 30°C
Procedure: E.coli HB101 was transformed with the plasmid pCGLS-11 to enable constitutive bacterial luciferase expression from the luxCDABE operon. The resulting strain was used for cell viability assays as follows. An overnight culture in MH medium with ampicillin (100 µg/ml) was pelleted at 3000×g for 10 min and washed in MH medium before re-suspending the cells in 50% MH medium with a final OD600 of approximately 0.2. After 30 min of incubation at 30°C the cells were again adjusted to an OD600 of 0.2. An aliquot of 95 µl of bacterial solution was dispensed into each well of a black 96 well microtiter plate with transparent bottom (Falcon, Bredford, MA, USA). To achieve the indicated concentrations, a multi-channel pipette was used to add 5 µl of a two-fold dilution series of peptide solution in water to 8 wells simultaneously. The plate was loaded into a Perkin-Elmer Envision microtiter plate reader immediately after addition of the peptide (arasin 1(1–23), PR-39(1–26) or cecropin P1) and the measurement started 30 sec later because of handling events and 2 seconds of shaking inside the plate reader. Light production and growth (OD595) of the sensor bacteria was followed for 3 h under repeated shaking cycles before each measurement at 30°C.

C. glutamicum ATCC 13032 = format: cell-based, Corynebacterium glutamicum; settings: ATCC 13032, 24 h
P. aeruginosa ATCC 27853 = format: cell-based, Pseudomonas aeruginosa; settings: ATCC 27853, 24 h
C. albicans ATCC 10231 = format: cell-based, Candida albicans; settings: ATCC 10231, 48 h
S. aureus ATCC 9144 = format: cell-based, Staphylococcus aureus; settings: ATCC 9144, 24 h
S. cerevisiae spp. = format: cell-based, Saccharomyces cerevisiae; settings: 48 h
E. coli ATCC 25922 = format: cell-based, Escherichia coli; settings: ATCC 25922, 24 h
E. coli HB101 [4] = experiment: Antibacterial MIC assay (Bioscreen C growth monitoring); format: cell-based, Escherichia coli; settings: 50% MH
Procedure: Escherichia coli (ATCC 25922), E. coli HB101, Pseudomonas aeruginosa (ATCC 27853), Staphylococcus aureus (ATCC 9144) and Corynebacterium glutamicum (ATCC 13032) were grown at 37°C in Mueller Hinton agar (MH; Difco Laboratories, Detroit, USA). The yeasts Candida albicans (ATCC 10231) and Saccharomyces cerevisiae spp and the mold Botrytis cinerea 101 [33] were cultivated on potato dextrose agar supplemented with 2% glucose at room temperature (RT).
Determination of the MIC against bacteria was performed by continuous monitoring of bacterial growth using a Bioscreen C microbiology reader (Labsystems Oy, Helsinki, Finland). The synthetic peptides were tested for antibacterial and antifungal activity at final concentrations (prepared from serial two-fold dilutions) ranging from 0.2 µM to 100 µM. The test was performed in 100-well flat-bottomed honeycomb plates, in which 50 µl peptide solution was incubated with 50 µl of a suspension of an actively growing culture of bacteria diluted to a starting concentration of 2.5×10^5 CFU/ml in Mueller Hinton Broth (MHB). The growth chamber was maintained at 37°C during the incubation period. The absorbance was measured by a turbidometric method with vertical light photometry and a wide band filter (420–580 nm). MIC was defined as the lowest concentration resulting in no visible bacterial growth after 24 h.

CC[C@H](C)[C@H](NC(=O)CNC(=O)[C@H](CCC(=O)O)NC(=O)[C@H](CO)NC(=O)[C@@H](NC(=O)[C@H](CCCNC(=N)N)NC(=O)[C@H](CCCCN)NC(=O)[C@H](CCCCN)NC(=O)[C@H](C)NC(=O)[C@H](CO)NC(=O)[C@H](CC(N)=O)NC(=O)[C@H](CCC(=O)O)NC(=O)[C@H](CC(C)C)NC(=O)[C@H](CCCCN)NC(=O)[C@H](CCCCN)NC(=O)[C@H](C)NC(=O)[C@@H](NC(=O)[C@H](CCCCN)NC(=O)[C@H](CO)NC(=O)[C@H](CC(C)C)NC(=O)[C@H](Cc1c[nH]c2ccccc12)NC(=O)[C@@H](N)CO)[C@@H](C)O)[C@@H](C)CC)C(=O)N[C@@H](C)C(=O)N[C@H](C(=O)N[C@@H](C)C(=O)N[C@H](C(=O)N[C@@H](CCC(N)=O)C(=O)NCC(=O)NCC(=O)N1CCC[C@H]1C(=O)N[C@@H](CCCNC(=N)N)C(=O)O)[C@@H](C)CC)[C@@H](C)CC [Cecropin P1, reference compound] (H-SWLSKTAKKLENSAKKRISEGIAIAIQGGPR-OH; N-terminus and C-terminus assumed)
MBC against Gram-negative bacteria (Gram-negative bacteria): 1 to 2 µM
incubation time after which damage of the membrane was induced (E. coli HB101 [1]): 5 min
time to kill all the bacteria (E. coli HB101 [2]): approximately 15 min
IC50 B. cinerea 101 (B. cinerea 101): 50 µM
reduction of light emitted [3]: 60%
MIC C. glutamicum ATCC 13032 (C. glutamicum ATCC 13032): 0.4 to 1.6 µM
MIC P. aeruginosa ATCC 27853 (P. aeruginosa ATCC 27853): 0.8 to 1.6 µM
IC50 (C. albicans ATCC 10231): 12.5 µM
MIC S. aureus ATCC 9144 (S. aureus ATCC 9144): >100 µM
IC50 (S. cerevisiae spp.): 6.3 µM
MIC E. coli ATCC 25922 (E. coli ATCC 25922): 0.8 to 1.6 µM
MIC E. coli HB101 (E. coli HB101 [4]; lowest concentration with no visible bacterial growth after 24 h, 37°C, 2.5×10^5 cells/mL, representative of three individual experiments): 0.8 to 1.6 µM
MIC against E. coli HB101 (figure legend) (E. coli HB101 [4]; value used for mode of action studies): 1 µM (≈ 3.34 µg/mL)
